# Data taken from patent publication US20030158251A1, “Methods, pharmaceutical compositions and articles of manufacture for treating disorders associated with abnormal cell proliferation and apoptosis” (priority 2002, published 2003).
# Where a SMILES comes first, the peptide text is derived from it. The star is where a group is joined. Cbz = O=C(OCc1ccccc1)*
# B1: IL6: interleukin 6, anti-apoptotic agent in M1-t-p53 cells (protein, UniProt P08505 25-211, looked up)
# Interleukin-6: FPTSQVRRGDFTEDTTPNRPVYTTSQVGGLITHVLWEIVEMRKELCNGNSDCMNNDDALAENNLKLPEIQRNDGCYQTGYNQEICLLKISSGLLEYHSYLEYMKNNLKDNKKDKARVLQRDTETLIHIFNQEVKDLHKIVLPTPISNALLTDKLESQKEWLRTKTIQFILKSLEEFLKVTLRSTRQT
# Columns and labels:
# p53 [1] = test: Proteasome inhibitor block of dicoumarol-induced p53 elimination in HCT116 cells; assay type: cell-based, human; settings: HCT116, 4 hrs with dicoumarol; 100 micromolar MG 132 or 40 micromolar lactacystin
# Procedure: FIGS. 2a-b illustrate that proteasomal degradation is responsible for the dicoumarol-induced p53 decrease in cells. […] Immunoblots were carried out as in FIG. 1.
# Cell extracts were prepared by lysis of PBS-washed cells in RIPA lysis buffer [150 mM NaCl, 1% NP-40 (vol/vol), 0.5% AB-deoxycholate (DOC vol/vol), 0.1% SDS (vol/vol), 50 mM Tris-Hcl pH 8, 1 mM dithiotireitol (DTT) and 1 micogram/ml each of leupeptin, aprotinin, pepstatin (Sigma cocktail)]. The insoluble pellet was discarded and protein concentration was determined using Bradford reagent (BioRad). Equal amounts of protein were mixed with Laemmli sample buffer (4% SDS, 20% glycerol, 10% 2-mercaptoeftanol and 0.125M Tris-Hcl), heated at 95° C. for 5 min and loaded on an 8% polyacrylamide-SDS gel. Following electophoresis, proteins were transferred to cellulose nitrate 0.45 micrometer membranes (Schleicher & Schuell, Dassel, Germany). Loading equivalence and transfer efficiency were monitored by Ponceau S staining and the membranes were then incubated with appropriate antibodies to proteins of interest followed by horse-radish peroxidase conjugated anti-IgG antibodies. […]
# It is well documented that p53 accumulation is determined by the rate of its proteasomal degradation (reviewed in refs. 1,2).
# p53 [2] = test: Immunoblot of p53 level in M1-t-p53 cells; assay type: cell-based, mouse
# Procedure: Immunoblot analysis was carried out using Pab 240 monoclonal anti p53 antibody. The blots were then stripped and re-probed with anti I-kappa-B and anti beta-tubulin antibody.
# Immunoblot analysis was carried out using Pab 240 monoclonal anti p53 antibody and hamster anti mouse Bcl-2. FIG. 11a is an immunoblot of cell extracts from M1-t-p53 myeloid leukemic cells cultured for 6h at 32° C. or 37° C. without or with different concentrations of radicicol. Antibodies are indicated at left. FIG. 11b is an immunoblot of cell extracts from cells cultured at 32° C. for 6 or 2 h without (−) or with (+) 1 μM radicicol. Cells were also preincubated for 4 h at 32° C. and then cultured with 1 μM radicicol or 1 μM geldanamycin (geldan.) for 2 h (2 h*).
# (§1) The cell lines used were: HCT116 human colon carcinoma cells, HCT116 HA-NQO1 over-expressing cells (45), p53 null HCT116 cells (Bunz, F., Dutiaux, A., Lengauer, C., Waldman, T., Zhou, S., Brown, J. P., Sedivy, J. M., Kinzler, K. W. & Vogelstein, B. (1998) Science 282, 1497-1501.), COS 1 monkey kidney cells, normal thymocytes obtained from 2.5 month old Balb/C mice and M1-t-p53 mouse myeloid leukemic cells that express a temperature-sensitive mutant p53 [Val-135] protein (Yonish-Rouach, E., Resnitzky, D., Lotem, J., Sachs, L., Kimchi, A. & Oren, M. (1991) Nature 352, 345-347).
# (§2) The p53 in M1-t-p53 cells behaves like a tumor-suppressing wild-type p53 at 32° C. and like a mutant p53 at 37° C. (24). HCT116 and COS 1 cells were grown in Dulbecco's modified Eagle's medium (DMEM) supplemented with 10% fetal bovine serum (FBS), […] penicillin, and 100 µg/ml streptomycin and cultured at 37° C. in a humidified incubator with 5.6% C02. Normal thymocytes and M1-t-p53 cells were grown in DMEM supplemented with 10% heat inactivated (56° C., 30 min) horse serum and cultured at 37° C. in an incubator with 10% […].
# (§3) Cell extracts were prepared by lysis of PBS-washed cells in RIPA lysis buffer [150 mM NaCl, 1% NP-40 (vol/vol), 0.5% AB-deoxycholate (DOC vol/vol), 0.1% SDS (vol/vol), 50 mM Tris-Hcl pH 8, 1 mM dithiotireitol (DTT) and 1 micogram/ml each of leupeptin, aprotinin, pepstatin (Sigma cocktail)]. The insoluble pellet was discarded and protein concentration was determined using Bradford reagent (BioRad). Equal amounts of protein were mixed with Laemmli sample buffer (4% SDS, 20% glycerol, 10% 2-mercaptoeftanol and 0.125M Tris-Hcl), heated at 95° C. for 5 min and loaded on an 8% polyacrylamide-SDS gel. Following electophoresis, proteins were transferred to cellulose nitrate 0.45 micrometer membranes (Schleicher & Schuell, Dassel, Germany). Loading equivalence and transfer efficiency were monitored by Ponceau S staining and the membranes were then incubated with appropriate antibodies to proteins of interest followed by horse-radish peroxidase conjugated anti-IgG antibodies. Signals were developed using Super Signal (Pierce Poxkford, USA) at 20° C. for 5 min and the membranes were then exposed to X-ray film (Fuji Tokyo, Japan) for an appropriate time and developed. Membranes were stripped using 50 mM citric acid before using a different primary antibody. The antibodies used were; Monoclonal anti human p53 (Pab 1801) (26), monoclonal anti mouse and human p53 (Pab240), monoclonal anti I-kappa-B (Santa Cruz Biotechnology, Santa Cruz, Calif., USA), monoclonal anti beta-tubulin and anti HA (Sigma Chemical, St. Louis, Mo.).
# (§4) These cells are viable and proliferate at 37° C. when the p53 behaves like a mutant form, but undergo apoptosis at 32° C. when the p53 behaves like wild-type (3).
# Because interleukin 6 (IL-6) and the calcium mobilizing compound thapsigargin (TG) are known to be efficient anti-apoptotic agents in M1-t-p53 cells (3, 31), the effect of these compounds on p53 stability was also investigated. […] (FIG. 6a).
# p53 [3] = test: Immunoblot of p53 level in gamma irradiated normal thymocytes; assay type: cell-based, mouse; settings: for wild-type p53 accumulation: γ-irradiated normal thymocytes, 2 h, 200 μM dicoumarol, 5 μM radicicol or 5 μM geldanamycin
# Procedure: Cell extracts were prepared after 2 h and apoptosis was determined after 5 h.
# [4] = system: M1-t-p53 myeloid leukemic cells; test: cells
# Procedure: Cell viability was determined 23 h after culture at 32° C.
# as §1, §2
# (§5) Apoptosis in normal thymocytes was induced by gamma irradiation 4 Gy (Co^60 source 0.63 Gy/min) and in M1-t-p53 cells by culture at 32° C. The percentage of apoptotic thymocytes was determined on May-Grünwald-Giemsa-stained cytospin preparations by counting 400 cells 5 hrs post gamma-irradiation. Apoptotic cells were scored by their smaller size, condensed chromatin, and fragmented nuclei compared with non-apoptotic cells. Analysis of DNA fragmentation during apoptosis in thymocytes was performed by DNA agarose gel electophoresis as described (27). Apoptotic M1-t-p53 cells undergo secondary changes including uptake of trypan-blue (28). The percent of viable cells (non apoptotic and not stained with trypan-blue) was determined by counting 400 cells in a hemocytometer after 23 hrs at 32° C.
# as §4
# p53 [5] = test: Immunoblot of p53 accumulation in 7-M12 myeloid leukemic cells; assay type: cell-based; settings: 7-M12 cells; for accumulation of p53 following γ-irradiation or doxorubicin treatment: 2 h, 100 μM dicoumarol or 5 μM radicicol
# Procedure: Immunoblot analysis was carried out using PAb 240 monoclonal anti p53 antibody and rabbit anti IκB FIG. 13a is an immunoblot of extracts from 7-M12 cells which were either not treated (none), γ-irradiated at 0.4 Gy or treated with 2.1 μM doxorubicin (Dox.). […] Cell extracts were prepared after 2 h and apoptosis was determined after 5 h.
# p53 [6] = test: Dicoumarol-induced p53 degradation in transfected p53 null HCT116 cells; assay type: cell-based, human; settings: 5 h
# Procedure: Antibodies used to probe and reprobe the blots are indicated at the left. Stripping and reprobing was as for FIGS. 8 and 9.
# Transfection: Cells were seeded at 60% confluence in 6-well plates 16 h before transfection with the desired plasmids. Transfections were carried out by the calcium phosphate method followed by a 10% glycerol shock for 30 seconds, 7 h post transfection. The exact amount of plasmid used in each experiment is indicated in the corresponding figure legend. Whenever needed an empty vector was used to maintain a constant amount of 5 μg total DNA in each transfection mix. Cell extracts were generally prepared 24 h after transfection.
# as §3, with “The antibodies used were; Monoclonal anti human p53 (Pab 1801) (26), monoclonal anti mouse and human p53 (Pab240), monoclonal anti I-kappa-B (Santa Cruz Biotechnology, Santa Cruz, Calif., USA), monoclonal anti beta-tubulin and anti HA (Sigma Chemical, St. Louis, Mo.).” left out
# p53 [7] = test: Immunoblot of p53 level in COS 1 cells expressing SV40 large T antigen; assay type: cell-based, monkey; settings: COS 1 cells gamma irradiated at 6 Gy, up to 400 micromolar, 4 hrs
# Procedure: Cell extracts were prepared by lysis of PBS-washed cells in RIPA lysis buffer [150 mM NaCl, 1% NP-40 (vol/vol), 0.5% AB-deoxycholate (DOC vol/vol), 0.1% SDS (vol/vol), 50 mM Tris-Hcl pH 8, 1 mM dithiotireitol (DTT) and 1 micogram/ml each of leupeptin, aprotinin, pepstatin (Sigma cocktail)]. The insoluble pellet was discarded and protein concentration was determined using Bradford reagent (BioRad). Equal amounts of protein were mixed with Laemmli sample buffer (4% SDS, 20% glycerol, 10% 2-mercaptoeftanol and 0.125M Tris-Hcl), heated at 95° C. for 5 min and loaded on an 8% polyacrylamide-SDS gel. Following electophoresis, proteins were transferred to cellulose nitrate 0.45 micrometer membranes (Schleicher & Schuell, Dassel, Germany). Loading equivalence and transfer efficiency were monitored by Ponceau S staining and the membranes were then incubated with appropriate antibodies to proteins of interest followed by horse-radish peroxidase conjugated anti-IgG antibodies. Signals were developed using Super Signal (Pierce Poxkford, USA) at 20° C. for 5 min and the membranes were then exposed to X-ray film (Fuji Tokyo, Japan) for an appropriate time and developed. Membranes were stripped using 50 mM citric acid before using a different primary antibody. […]
# p53 [8] = test: Immunoblot of p53 level in HCT116 cells treated with dicoumarol; assay type: cell-based, human; settings: for p53 level: HCT116 cells, 400 micromolar dicoumarol; for accumulation of p53 upon γ-irradiation: HCT116 γ-irradiated at 6 Gy, 4 hrs
# Procedure: Protein levels of each lane probed were calibrated by probing with monoclonal anti beta-tubulin antibody. Dic—Dicoumarol.
# as §3
# Blots were stripped and re-probed with monoclonal anti beta-tubulin antibody as a control for equal protein loading in each lane.
# Since it is known that irradiation cause accumulation of p53 within cells, an additional event was conducted on irradiated cells. […] As expected, p53 accumulated upon γ-irradiation (compare FIG. 1b lanes 1 and 2).
# normal thymocytes = test: Apoptosis in gamma irradiated normal thymocytes; assay type: cell-based, mouse
# From the text: as §1, §5
# thymocytes = test: Dexamethasone induced apoptosis in thymocytes; assay type: cell-based, mouse; settings: for apoptotic cells: dexamethasone treated thymocytes, from 42±3% without inhibitor
# From the text: Accumulation of p53 in γ-irradiated or doxorubicin treated 7-M12 myeloid leukemic cells (28) induces expression of mdm2 and waf-1.
# [9] = 32° C., 6 hrs, 10 nanomolar TG or 50 ng/ml IL-6
# [10] = Mus musculus, 23 h, read-out: cell viability
molecule,measurement,setting,value
CC(C)C[C@@H](C=O)NC(=O)[C@H](CC(C)C)NC(=O)[C@H](CC(C)C)NC(=O)OCc1ccccc1 [MG132] (Cbz-Leu-Leu-Leu-aldehyde),block of dicoumarol-induced p53 elimination,p53 [1],completely blocked
"C/C=C(/C)C(=O)O[C@H]1C(C)=C2[C@H]([C@@H]1OC(=O)CCCCCCC)[C@@](C)(OC(C)=O)C[C@H](OC(=O)CCC)[C@@]1(O)[C@H]2OC(=O)[C@@]1(C)O [TG, thapsigargin]",p53 level,p53 [2]; [9],did not cause a reduction in p53 level
"O=c1oc2ccccc2c(O)c1Cc1c(O)c2ccccc2oc1=O [dicoumarol, 13-3′-methylene bis (4-hydroxycoumarin)]",level of p53,"p53 [3]; 4 Gy gamma irradiated thymocytes, 100 and 200 micromolar, 5 hrs",decrease in the level of p53
same,wild-type p53 accumulation,p53 [3],completely inhibited
same,cell survival compared to cells without dicoumarol,"[4]; M1-t-p53 cells, 32° C., 23 hrs, 75 or 100 micromolar",increase in cell survival
same,viability at 75 µM,"[4]; Mus musculus, read-out: cell viability",52 ± 4%
same,accumulation of p53 following γ-irradiation or doxorubicin treatment,p53 [5],inhibited
same,dicoumarol induced p53 degradation,"p53 [6]; p53 null HCT116 co-transfected with p53 and LT, 300 μM",resistant to dicoumarol induced p53 degradation
same,dicoumarol induced p53 degradation,"p53 [6]; p53 null HCT116 transfected only with p53, 300 μM",sensitive to dicoumarol induced p53 degradation
same,levels of Mdm-2 and LT,"p53 [6]; transfected p53 null HCT116, 300 μM",not affected
same,p53 level,p53 [7],not reduced
same,level of I-kappa-B,"p53 [2]; 32° C., 6 hrs, 100 micromolar",did not affect
same,p53 level,"p53 [2]; 32° C., 16 hrs, 75 or 100 micromolar dicoumarol",reduced
same,degradation of I-kappa-B or beta-tubulin,"p53 [2]; 37° C., 6 hrs, 100 micromolar",not of I-kappa-B or beta-tubulin
same,degradation of mutant p53,"p53 [2]; 37° C., 6 hrs, 100 micromolar",induce degradation of p53
same,level of beta-tubulin,"p53 [8]; HCT116, same conditions as the p53 blots (specificity control)",unaffected
same,p53 level,p53 [8]; 90 min,significant reduction in p53 level
same,p53 level,p53 [8]; 180 min,almost complete elimination of p53
same,accumulation of p53 upon γ-irradiation,p53 [8]; 200 micromolar,reduced
same,accumulation of p53 upon γ-irradiation,p53 [8]; 400 micromolar,further reduced
same,induction of apoptosis (morphology and DNA fragmentation),"normal thymocytes; 4 Gy gamma irradiated thymocytes, 100 and 200 micromolar, 5 hrs, dose dependent",inhibited induction of apoptosis
same,inhibition of apoptosis,"normal thymocytes; 4 Gy gamma irradiated thymocytes, 200 micromolar",Complete inhibition of apoptosis
same,induction of apoptosis,"normal thymocytes; γ-irradiated normal thymocytes, 5 h, 200 μM dicoumarol or 5 μM hsp90 inhibitor",completely inhibited
COC1=C2C[C@@H](C)C[C@H](OC)[C@H](O)[C@@H](C)/C=C(\C)[C@H](OC(N)=O)[C@@H](OC)/C=C\C=C(/C)C(=O)NC(=CC1=O)C2=O [geldanamycin],viability at 0.1 µM,[4]; [10],90 ± 4%
same,apoptotic cells,thymocytes,5±2%
CC(=O)N[C@@H](CSC(=O)[C@]1([C@@H](O)C(C)C)NC(=O)[C@H](C)[C@@H]1O)C(=O)O [lactacystin],block of dicoumarol-induced p53 elimination,p53 [1],completely blocked
C[C@@H]1C[C@H]2O[C@@H]2/C=C\C=C\C(=O)Cc2c(Cl)c(O)cc(O)c2C(=O)O1 [radicicol],wild-type p53 accumulation,p53 [3],only a weak inhibition
same,suppression of wild-type p53 induced apoptosis,"[4]; M1-t-p53 cells cultured at 32° C., 23 h",strongly suppressed
same,viability at 0.1 µM,[4]; [10],90 ± 4%
same,inhibition of p53 accumulation relative to dicoumarol,p53 [5]; 5 μM radicicol versus 100 μM dicoumarol,stronger effect
same,accumulation of p53 following γ-irradiation or doxorubicin treatment,p53 [5],inhibited
same,apoptotic cells,thymocytes,5±2%
same,suppression of dexamethasone induced apoptosis,thymocytes; thymocytes,strongly suppressed
same,p53 level,"p53 [2]; 32° C., 2 h, 1 μM, also after 4 h preincubation at 32° C.",decrease in p53 level
same,level of p53 in its wild-type form,"p53 [2]; 32° C., 6 h incubation",strong decrease in the level of p53
same,level of p53 in its mutant form,"p53 [2]; 37° C., 6 h incubation",strong decrease in the level of p53
same,level of Bcl-2,"p53 [2]; 6 h incubation, same conditions",no change
B1,p53 level,p53 [2]; [9],did not cause a reduction in p53 level
